Patent US8163779B2, “Glucokinase activators” (Takeda San Diego, Inc., priority 2006, dated 2012)
Structures can show the parent of a compound that is named as a salt.

Biological target: T1, glucokinase (GK) (Homo sapiens, UniProt P35557)
T1 construct: I.D. No. 1 corresponds to residues 12-465 of glucokinase; made in house; host or cells: E. coli DH10b-T1r
T1 sequence (P35557 with tags, fused parts or gaps isoform P35557-2): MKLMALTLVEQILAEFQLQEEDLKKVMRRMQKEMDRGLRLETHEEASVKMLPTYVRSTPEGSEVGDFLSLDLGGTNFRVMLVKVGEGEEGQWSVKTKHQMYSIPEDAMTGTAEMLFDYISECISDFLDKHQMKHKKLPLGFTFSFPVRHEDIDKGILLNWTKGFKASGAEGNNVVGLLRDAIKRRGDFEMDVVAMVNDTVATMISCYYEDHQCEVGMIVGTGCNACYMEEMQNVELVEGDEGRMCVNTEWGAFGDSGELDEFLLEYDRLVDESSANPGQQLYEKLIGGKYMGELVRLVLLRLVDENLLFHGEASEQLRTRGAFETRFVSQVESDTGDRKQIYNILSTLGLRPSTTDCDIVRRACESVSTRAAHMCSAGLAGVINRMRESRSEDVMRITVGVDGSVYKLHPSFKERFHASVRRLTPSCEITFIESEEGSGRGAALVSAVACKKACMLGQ
Experiment: enzymatic glucokinase activity assay (ATP consumption, KinaseGlo luminescence)
Type: biochemical
Conditions: recombinant GK residues 12-465; 5 μM ATP, 5 mM Glucose; Kact = concentration that displays 50% of the maximal increase in GK activity; read-out: pKact
Method in brief: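 Activation was scored as ATP consumption, quantified by KinaseGlo luciferase luminescence after a 60 min room-temperature reaction. Reactions contained E. coli-expressed, purified GK, 5 μM ATP, 5 mM glucose, 10 mM MgCl2, 0.01% Brij35 and 2% DMSO at pH 7.2; pKact was fitted non-linearly.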

SMILES | EC50
Cc1cc(N2CCOCC2)cc(=O)n1[C@H](CC1CCCCC1)C(=O)Nc1nccs1 (stereo in doubt) [Example 79, 3-cyclohexyl-2-(6-methyl-4-morpholino-2-oxopyridin-1(2H)-yl)-N-(thiazol-2-yl)propanamide] | > 15800 nM
O=C(Nc1nc2cccnc2s1)[C@H](CC1CCOCC1)n1ccc(S(=O)(=O)C2CC2)cc1=O [Example 52, (S)-2-(4-(cyclopropylsulfonyl)-2-oxopyridin-1(2H)-yl)-3-(tetrahydro-2H-pyran-4-yl)-N-(thiazolo[5,4-b]pyridin-2-yl)propanamide] | 1580 to 15800 nM
Cc1cc(-c2csc3ccccc23)cc(=O)n1[C@@H](CC1CCCCC1)C(=O)Nc1nccs1 [Example 107, (S)-2-(4-(benzo[b]thiophen-3-yl)-6-methyl-2-oxopyridin-1(2H)-yl)-3-cyclohexyl-N-(thiazol-2-yl)propanamide] | > 15800 nM
COc1ccc2nc(NC(=O)[C@H](CC3CCCCC3)n3c(C)cc(S(=O)(=O)C4CC4)cc3=O)sc2n1 [Example 123, (S)-3-cyclohexyl-2-(4-(cyclopropylsulfonyl)-6-methyl-2-oxopyridin-1(2H)-yl)-N-(5-methoxythiazolo[5,4-b]pyridin-2-yl)propanamide] | < 1580 nM
O=C(Nc1ncc(Cl)s1)C(CC1CCOCC1)n1cc(S(=O)(=O)N2CCCC2)ccc1=O (stereo not shown) [Example 140, N-(5-chlorothiazol-2-yl)-2-(2-oxo-5-(pyrrolidin-1ylsulfonyl)pyridin-1(2H)-yl)-3-(tetrahydro-2H-pyran-4-yl)propanamide] | 1580 to 15800 nM
COc1ccc2nc(NC(=O)[C@@H](CC3CCOCC3)n3ccc(S(=O)(=O)CCCO)cc3=O)sc2n1 [Example 71, (R)-2-(4-(3-hydroxypropylsulfonyl)-2-oxopyridin-1(2H)-yl)-N-(5-methoxythiazolo[5,4-b]pyridin-2-yl)-3-(tetrahydro-2H-pyran-4-yl)propanamide] | > 15800 nM
O=C(Nc1ncc(F)s1)[C@H](CC1CCOCC1)n1cc(Cl)c(S(=O)(=O)C2CC2)cc1=O [Example 198, (S)-2-(5-chloro-4-(cyclopropylsulfonyl)-2-oxopyridin-1(2H)-yl)-N-(5-fluorothiazol-2-yl)-3-(tetrahydro-2H-pyran-4-yl)propanamide] | 1580 to 15800 nM
O=C(Nc1ncc(F)s1)C(CC1CCOCC1)n1ccc(S(=O)(=O)c2ccccn2)cc1=O (stereo not shown) [Example 50, N-(5-fluorothiazol-2-yl)-2-(2-oxo-4-(pyridin-2-ylsulfonyl)pyridin-1(2H)-yl)-3-(tetrahydro-2H-pyran-4-yl)propanamide] | < 1580 nM
O=C(Nc1nc2ccc(Cl)cc2s1)C(CC1CCOCC1)n1ccc(S(=O)(=O)C2CC2)cc1=O (stereo not shown) [Example 130, N-(6-chlorobenzo[d]thiazol-2-yl)-2-(4-(cyclopropylsulfonyl)-2-oxopyridin-1(2H)-yl)-3-(tetrahydro-2H-pyran-4-yl)propanamide] | 1580 to 15800 nM
Cc1cc(-c2ccc(F)cc2)cc(=O)n1[C@@H](CC1CCCCC1)C(=O)Nc1nccs1 [Example 105, (S)-3-cyclohexyl-2-(4-(4-fluorophenyl)-6-methyl-2-oxopyridin-1(2H)-yl)-N-(thiazol-2-yl)propanamide] | > 15800 nM
COC(C)(C)c1cnc(NC(=O)[C@@H](CC2CCOCC2)n2ccc(S(=O)(=O)C3CC3)cc2=O)s1 [Example 132, (R)-2-(4-(cyclopropylsulfonyl)-2-oxopyridin-1(2H)-yl)-N-(5-(2-methoxypropan-2-yl)thiazol-2-yl)-3-(tetrahydro-2H-pyran-4-yl)propanamide] | 1580 to 15800 nM
Cc1cc(-c2ccc(F)c(Cl)c2)cc(=O)n1[C@@H](CC1CCCCC1)C(=O)Nc1nccs1 [Example 106, (S)-2-(4-(3-chloro-4-fluorophenyl)-6-methyl-2-oxopyridin-1(2H)-yl)-3-cyclohexyl-N-(thiazol-2-yl)propanamide] | > 15800 nM
Cc1cc(S(=O)(=O)c2cccc(F)c2)cc(=O)n1C(CC1CCOCC1)C(=O)Nc1ncc(Cl)s1 (stereo not shown) [Example 158, N-(5-chlorothiazol-2-yl)-2-(4-(3-fluorophenylsulfonyl)-6-methyl-2-oxopyridin-1(2H)-yl)-3-(tetrahydro-2H-pyran-4-yl)propanamide] | < 1580 nM
Cc1cc(S(=O)(=O)C2CCOCC2)cc(=O)n1C(CC1CCCC1)C(=O)Nc1ncc(Cl)s1 (stereo not shown) [Example 174, N-(5-chlorothiazol-2-yl)-3-cyclopentyl-2-(6-methyl-2-oxo-4-(tetrahydro-2H-pyran-4-ylsulfonyl)pyridin-1(2H)-yl)propanamide] | 1580 to 15800 nM
O=C(Nc1ncc(F)s1)[C@@H](CC1CCOCC1)n1ccc(S(=O)(=O)C2CCCC2)cc1=O [Example 33, (R)-2-(4-(cyclopentylsulfonyl)-2-oxopyridin-1(2H)-yl)-N-(5-fluorothiazol-2-yl)-3-(tetrahydro-2H-pyran-4-yl)propanamide] | 1580 to 15800 nM
COc1ccc2nc(NC(=O)[C@H](CC3CCOCC3)n3ccc(S(=O)(=O)CCCO)cc3=O)sc2n1 [Example 72, (S)-2-(4-(3-hydroxypropylsulfonyl)-2-oxopyridin-1(2H)-yl)-N-(5-methoxythiazolo[5,4-b]pyridin-2-yl)-3-(tetrahydro-2H-pyran-4-yl)propanamide] | 1580 to 15800 nM
O=C(Nc1nccs1)[C@H](CC1CCCCC1)n1ccc(S(=O)(=O)C2CCCC2)cc1=O [Example 13, (S)-3-cyclohexyl-2-(4-(cyclopentylsulfonyl)-2-oxopyridin-1(2H)-yl)-N-(thiazol-2-yl)propanamide] | < 1580 nM
Cc1cc(S(=O)(=O)C2CCOCC2)cc(=O)n1[C@@H](CC1CCCC1)C(=O)Nc1ncc(Cl)s1 [Example 191, (S)-N-(5-chlorothiazol-2-yl)-3-cyclopentyl-2-(6-methyl-2-oxo-4-(tetrahydro-2H-pyran-4-ylsulfonyl)pyridin-1(2H)-yl)propanamide] | 1580 to 15800 nM
COc1ccc2nc(NC(=O)[C@@H](CC3CCOCC3)n3ccc(S(=O)(=O)C4CCCC4)cc3=O)sc2n1 [Example 58, (R)-2-(4-(cyclopentylsulfonyl)-2-oxopyridin-1(2H)-yl)-N-(5-methoxythiazolo[5,4-b]pyridin-2-yl)-3-(tetrahydro-2H-pyran-4-yl)propanamide] | > 15800 nM
O=C(Nc1ncc(Cl)s1)C(CC1CCOCC1)n1cc(Cl)c(S(=O)(=O)C2CC2)cc1=O (stereo not shown) [Example 179, 2-(5-chloro-4-(cyclopropylsulfonyl)-2-oxopyridin-1(2H)-yl)-N-(5-chlorothiazol-2-yl)-3-(tetrahydro-2H-pyran-4-yl)propanamide] | 1580 to 15800 nM
NC(=O)c1ccc(NC(=O)[C@H](CC2CCOCC2)n2ccc(S(=O)(=O)C3CCCC3)cc2=O)nc1 [Example 46, (S)-6-(2-(4-(cyclopentylsulfonyl)-2-oxopyridin-1(2H)-yl)-3-(tetrahydro-2H-pyran-4-yl)propanamido)nicotinamide] | < 1580 nM
COC(=O)c1cnc(NC(=O)[C@H](CC2CCOCC2)n2ccc(S(=O)(=O)C3CCCC3)cc2=O)s1 [Example 45, (5)-methyl 2-(2-(4-(cyclopentylsulfonyl)-2-oxopyridin-1(2H)-yl)-3-(tetrahydro-2H-pyran-4-yl)propanamido)thiazole-5-carboxylate] | < 1580 nM
Cc1cc(S(=O)(=O)Cc2ccco2)cc(=O)n1[C@@H](CC1CCOCC1)C(=O)Nc1ncc(Cl)s1 [Example 141, (S)-N-(5-chlorothiazol-2-yl)-2-(4-(furan-2-ylmethylsulfonyl)-6-methyl-2-oxopyridin-1(2H)-yl)-3-(tetrahydro-2H-pyran-4-yl)propanamide] | < 1580 nM
Cc1cc(-c2ccc(S(C)(=O)=O)cc2)cc(=O)n1[C@@H](CC1CCCCC1)C(=O)Nc1nccs1 [Example 101, (S)-3-cyclohexyl-2-(6-methyl-4-(4-(methylsulfonyl)phenyl)-2-oxopyridin-1(2H)-yl)-N-(thiazol-2-yl)propanamide] | > 15800 nM
O=C(Nc1ncc(Cl)s1)[C@H](CC1CCOCC1)n1cc(Cl)c(S(=O)(=O)C2CC2)cc1=O [Example 196, (S)-2-(5-chloro-4-(cyclopropylsulfonyl)-2-oxopyridin-1(2H)-yl)-N-(5-chlorothiazol-2-yl)-3-(tetrahydro-2H-pyran-4-yl)propanamide] | 1580 to 15800 nM
O=C(Nc1ncc(F)s1)[C@H](CC1CCOCC1)n1ccc(S(=O)(=O)C2CC2)cc1=O [Example 35, (S)-2-(4-(cyclopropylsulfonyl)-2-oxopyridin-1(2H)-yl)-N-(5-fluorothiazol-2-yl)-3-(tetrahydro-2H-pyran-4-yl)propanamide] | < 1580 nM
O=C(Nc1ncc(Cl)s1)[C@H](CC1CCOCC1)n1ccc(S(=O)(=O)C2CCCC2)cc1=O [Example 32, (S)-N-(5-chlorothiazol-2-yl)-2-(4-(cyclopentylsulfonyl)-2-oxopyridin-1(2H)-yl)-3-(tetrahydro-2H-pyran-4-yl)propanamide] | < 1580 nM
Cc1cc(S(=O)(=O)C2CCCC2)cc(=O)n1C(CC1CCCCC1)C(=O)Nc1nccs1 (stereo not shown) [Example 5, 3-cyclohexyl-2-(4-(cyclopentylsulfonyl)-6-methyl-2-oxopyridin-1(2H)-yl)-N-(thiazol-2-yl)propanamide trifluoroacetic acid salt] | < 1580 nM
